# Reference: patent US20240351996A1, “CDK19-SELECTIVE INHIBITORS, AND METHODS OF USE THEREOF” (CZ BIOHUB SF, LLC, priority 2022, published 2024)
# Assays:
# CDK8 = CDK8 (Homo sapiens, UniProt P49336); assay: LanthaScreen europium kinase binding assay (FRET displacement), CDK8
# Experimental: (§1) FRET Displacement Assay to Measure IC50: The CDK19/CDK8 IC50 values were measured to evaluate activity and to determine CDK19/CDK8 selectivity. The IC50 values of the disclosed compounds was measured using a LanthaScreen™ europium kinase binding assay (ThermoFisher), as described herein.
# […] An aliquot of the cocktail solution (10 μL) was added to each well of a LUMITRAC™ 200:384 flat bottom, non-treated microtiter white plate. The plate was then covered to protect light sensitive reagents and incubated for 30 min at room temperature to equilibrate before addition of any inhibitors.
# (§2) A serial dilution of the compounds was titrated into each well using an automated liquid handling Staccato integrated system at the following concentration(s) (Log10 Molar [C]): −4.5, −5.0, −5.5, −6.0, −6.5, −7.0, −7.5, −8.0 so that a complete dose-response could be calculated. A Tecan microplate reader infinite m200 instrument was then used to measure the FRET signal of each individual well using an excitation of 317/20 nm, emission europium of 620/12 nm, and emission kinase tracer of 665/12 nm after a 3 h incubation period at room temperature until steady-state kinetics were achieved.
# (§3) Results were performed in duplicate and were repeated a total of 3 independent times before data was normalized to the DMSO control group and IC50 values reported.
# CDK19/CycC = CDK19/CycC (Homo sapiens, UniProt Q9BWU1); assay: LanthaScreen europium kinase binding assay (FRET displacement), CDK19; conditions: for CDK19 Selectivity: CDK19/CDK8 selectivity based on IC50 values; for IC50: his-tagged CDK19/CycC 5 nM, tracer 10 nM, 3 h incubation
# Sequence of CDK19/CycC (Q9BWU1 whole entry): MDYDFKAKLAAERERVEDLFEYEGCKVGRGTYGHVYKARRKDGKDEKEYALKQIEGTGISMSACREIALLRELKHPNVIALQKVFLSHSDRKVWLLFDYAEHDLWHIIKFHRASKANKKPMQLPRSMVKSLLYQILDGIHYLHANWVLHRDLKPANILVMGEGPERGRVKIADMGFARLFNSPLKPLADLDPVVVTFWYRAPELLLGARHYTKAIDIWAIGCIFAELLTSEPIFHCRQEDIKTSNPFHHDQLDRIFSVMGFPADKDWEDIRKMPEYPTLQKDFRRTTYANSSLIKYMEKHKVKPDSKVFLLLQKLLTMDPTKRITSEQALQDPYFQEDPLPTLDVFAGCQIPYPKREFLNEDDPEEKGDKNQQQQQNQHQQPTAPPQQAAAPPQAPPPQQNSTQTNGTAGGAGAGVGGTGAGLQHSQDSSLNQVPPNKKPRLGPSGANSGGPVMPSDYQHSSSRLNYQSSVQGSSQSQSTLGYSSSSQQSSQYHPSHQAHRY
# Sequence of CDK19/CycC (P24863 whole entry partner): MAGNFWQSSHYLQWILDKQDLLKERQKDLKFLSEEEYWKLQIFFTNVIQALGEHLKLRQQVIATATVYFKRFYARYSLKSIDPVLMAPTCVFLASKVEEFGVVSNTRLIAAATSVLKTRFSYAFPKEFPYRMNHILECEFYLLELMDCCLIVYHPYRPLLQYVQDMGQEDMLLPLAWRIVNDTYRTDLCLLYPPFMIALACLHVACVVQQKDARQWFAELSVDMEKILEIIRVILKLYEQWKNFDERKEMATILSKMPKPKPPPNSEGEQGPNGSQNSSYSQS
# Experimental: as §1
# To a kinase buffer cocktail solution (i.e., 5× Kinase Buffer A) was added: purified recombinant his-tagged CDK19/CycC protein (5 nM), ATP-competitive kinase inhibitor scaffold kinase tracer Alexa Fluor® 665 (10 nM), biotin anti-his tag antibody (2 nM), LanthaScreen® europium-streptavidin (2 nM). An aliquot of the cocktail solution (10 μL) was added to each well of a LUMITRAC™ 200:384 flat bottom, non-treated microtiter white plate. The plate was then covered to protect light sensitive reagents and incubated for 30 min at room temperature to equilibrate before addition of any inhibitors.
# as §2, §3
# Sequence of CDK8 (P49336 whole entry): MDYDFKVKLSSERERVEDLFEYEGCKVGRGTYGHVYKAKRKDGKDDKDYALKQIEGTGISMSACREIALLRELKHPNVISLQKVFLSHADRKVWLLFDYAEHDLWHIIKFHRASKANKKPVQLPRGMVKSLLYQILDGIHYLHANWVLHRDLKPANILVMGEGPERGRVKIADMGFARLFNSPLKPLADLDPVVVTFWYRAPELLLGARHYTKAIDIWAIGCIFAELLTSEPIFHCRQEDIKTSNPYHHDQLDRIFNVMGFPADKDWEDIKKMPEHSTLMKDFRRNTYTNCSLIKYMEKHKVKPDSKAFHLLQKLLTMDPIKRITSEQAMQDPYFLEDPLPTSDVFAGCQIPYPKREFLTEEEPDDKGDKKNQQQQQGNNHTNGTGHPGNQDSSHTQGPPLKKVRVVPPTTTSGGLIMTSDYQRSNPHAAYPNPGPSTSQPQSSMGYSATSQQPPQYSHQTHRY
# Sequence of CDK8 (P24863 whole entry partner): as the sequence (P24863 whole entry partner) above
SMILES,IC50 (CDK8),CDK19 Selectivity (CDK19/CycC),IC50 (CDK19/CycC)
CC(C)Cc1ccc(Nc2ncc(Nc3ccncc3)cn2)cc1 [Compound A5],–,3,–
Fc1ccc(Nc2ncc(Nc3ccncc3)cn2)cc1 [Compound A7],14000 nM,–,10000 nM
Cc1cc(Nc2cnc(Nc3ccc(CC(C)C)cc3)nc2)ccn1 [Compound A8],–,3.3,–
Cc1cc(Nc2cnc(Nc3ccc(CC(C)C)cc3)nc2)cc(C)n1 [Compound A9],8260 nM,4,2070 nM
Cc1cc(Nc2cnc(Nc3ccc(C4CC4)cc3)nc2)cc(C)n1 [Compound A18],10000 nM,–,10000 nM
CCCc1ccc(Nc2ncc(Nc3cc(C)nc(C)c3)cn2)cc1 [Compound A20],10000 nM,–,10000 nM
Cc1cc(Nc2cnc(Nc3cccc(C4CC4)c3)nc2)ccn1 [Compound A24],10000 nM,–,9870 nM
c1cc(Nc2ncc(Nc3ccncc3)cn2)cc(C2CC2)c1 [Compound A26],9030 nM,1.6,5690 nM
Cc1cc(Nc2cnc(Nc3cccc(C4CC4)c3)nc2)cc(C)n1 [Compound A27],10000 nM,–,10000 nM
CC(C)Cc1cccc(Nc2ncc(Nc3ccncc3)cn2)c1 [Compound A28],2730 nM,1.7,1640 nM
Cc1cc(Nc2cnc(Nc3cccc(CC(C)C)c3)nc2)ccn1 [Compound A29],2030 nM,2,991 nM
Cc1cc(Nc2cnc(Nc3cccc(CC(C)C)c3)nc2)cc(C)n1 [Compound A30],10000 nM,–,10000 nM
CC(C)Cc1cccc(Nc2ncc(Nc3cccnc3)cn2)c1 [Compound A31],9930 nM,–,9030 nM
COc1cc(Nc2cnc(Nc3cccc(CC(C)C)c3)nc2)ccn1 [Compound A33],2870 nM,3,965 nM
CC(C)Cc1cccc(Nc2ncc(Nc3ccnc(C(F)(F)F)c3)cn2)c1 [Compound A35],10000 nM,–,10000 nM
COc1cc(N2CCN(C)CC2)ccc1Nc1ncc(Nc2ccncc2)cn1 [Compound A38],10000 nM,–,10000 nM
Cc1cc(CC(C)C)cc(Nc2ncc(Nc3ccncc3)cn2)c1 [Compound A40],–,–,25000 nM
Cc1cc(Nc2ncc(Nc3ccncc3)cn2)ccc1F [Compound A41],8940 nM,1,8940 nM
FC(F)(F)c1cc(Nc2ncc(Nc3ccncc3)cn2)cc(C(F)(F)F)c1 [Compound A44],6330 nM,1,4810 nM
"CC(C)Cc1ccc(Nc2ncc(NC(=O)c3ccncc3)cn2)cc1 [Compound A48, N-(2-((4-isobutylphenyl)amino)pyrimidin-5-yl) isonicotinamide]",8220 nM,5.3,1550 nM
"CC(C)Cc1ccc(Nc2ncc(C(=O)Nc3ccncc3)cn2)cc1 [Compound A49, 2-((4-isobutylphenyl)amino)-N-(pyridin-4-yl)pyrimidine-5-carboxamide]",9360 nM,3.9,2490 nM
CC(C)Cc1ccc(Nc2ncc(Nc3ccncc3)cn2)cc1 [Compound A140],–,2.5,–
Cc1cc(Nc2cnc(Nc3ccc(CC(C)C)cc3)nc2)ccn1 [Compound A144],–,2.5,–
O=C(NC1CCCC1)c1cnccc1Nc1cnc(Nc2ccc(C3CCCCC3)cc2)nc1 [Compound A151],–,–,1110 nM

# Second part, the compound after the results:
IC50 (CDK8),CDK19 Selectivity (CDK19/CycC),IC50 (CDK19/CycC),SMILES
59 nM,1.2,69 nM,c1cc(Nc2cnc(Nc3ccc(C4CCCCC4)cc3)nc2)c(OC2CCCC2)cn1 [Compound A1]
14 nM,1.2,11 nM,c1cc(Nc2cnc(Nc3ccc(C4COC4)cc3)nc2)c(OC2CCCC2)cn1 [Compound A2]
8.2 nM,1.1,7.6 nM,c1cc(Nc2cnc(Nc3ccc(C4CCCC4)cc3)nc2)c(OC2CCCC2)cn1 [Compound A3]
210 nM,5.5,38 nM,Cc1nc(Nc2ccc(CC(C)C)cc2)ncc1Nc1ccncc1 [Compound A6]
310 nM,3.1,99 nM,CCCc1ccc(Nc2ncc(Nc3ccnc(C)c3)cn2)cc1 [Compound A10]
34 nM,0.9,38 nM,Cc1cnc2ccccc2c1Nc1cnc(Nc2ccc(CC(C)C)cc2)nc1 [Compound A12]
56 nM,2.4,24 nM,Cc1ccc2nccc(Nc3cnc(Nc4ccc(CC(C)C)cc4)nc3)c2c1 [Compound A13]
96 nM,3.3,29 nM,CCCc1ccc(Nc2ncc(Nc3ccncc3)cn2)cc1 [Compound A14]
109 nM,1.1,96 nM,CCCc1ccc(Nc2ncc(Nc3ccnc4ccccc34)cn2)cc1 [Compound A15]
371 nM,2.8,133 nM,c1cc(Nc2cnc(Nc3ccc(C4CC4)cc3)nc2)ccn1 [Compound A16]
1160 nM,2.8,419 nM,Cc1cc(Nc2cnc(Nc3ccc(C4CC4)cc3)nc2)ccn1 [Compound A17]
38 nM,4.2,9.1 nM,FC(F)C(F)(F)Oc1ccc(Nc2ncc(Nc3ccncc3)cn2)cc1 [Compound A19]
31 nM,1.3,24 nM,Cc1cnccc1Nc1cnc(Nc2ccc(CC(C)C)cc2)nc1C [Compound A22]
451 nM,4.5,100 nM,COc1cc(Nc2cnc(Nc3ccc(CC(C)C)cc3)nc2)ccn1 [Compound A23]
15 nM,0.9,16 nM,COc1cnccc1Nc1cnc(Nc2ccc(CC(C)C)cc2)nc1C [Compound A25]
1320 nM,3.5,378 nM,Cc1cnccc1Nc1cnc(Nc2cccc(CC(C)C)c2)nc1 [Compound A32]

IC50 (CDK8),CDK19 Selectivity (CDK19/CycC),IC50 (CDK19/CycC),SMILES
4510 nM,5,903 nM,CC(C)Cc1cccc(Nc2ncc(Nc3ccnc(C(C)C)c3)cn2)c1 [Compound A34]
513 nM,4.2,123 nM,COc1cc(CC(C)C)ccc1Nc1ncc(Nc2ccncc2)cn1 [Compound A36]
83 nM,2,41 nM,c1cc(Nc2cnc(Nc3ccc4c(c3)CCCC4)nc2)ccn1 [Compound A37]
833 nM,2,449 nM,Cc1cc(Nc2cnc(Nc3ccc(CC4CC4)cc3)nc2)ccn1 [Compound A42]
37 nM,6,6 nM,c1ccc2c(Nc3cnc(Nc4ccc(CC5CC5)cc4)nc3)ccnc2c1 [Compound A43]
214 nM,2,138 nM,c1cc(Nc2cnc(Nc3ccc(CC4CC4)cc3)nc2)ccn1 [Compound A45]
407 nM,4.6,88 nM,CC(C)Cc1ccc(Nc2ncc(Nc3ccnc(C(C)C)c3)cn2)cc1 [Compound A46]
16 nM,≥6,≤ 2.5 nM,COc1cnccc1Nc1cnc(Nc2ccc(CC(C)C)cc2)nc1 [Compound A50]
38 nM,≥15,≤ 2.5 nM,CCc1cnccc1Nc1cnc(Nc2ccc(CC(C)C)cc2)nc1 [Compound A51]
3550 nM,5,704 nM,"CC(C)Cc1ccc(Nc2ncc(Nc3cccnc3)cn2)cc1 [Compound A52, N2-(4-isobutylphenyl)-N5-(pyridin-3-yl)pyrimidine-2,5-diamine]"
35 nM,0.8,45 nM,CC(C)Cc1ccc(Nc2ncc(Nc3ccncc3OC3CCCCC3)cn2)cc1 [Compound A54]
44 nM,1.1,40 nM,CC(C)Cc1ccc(Nc2ncc(Nc3ccncc3OC3CCCNC3)cn2)cc1 (stereo not drawn) [Compound A55]
27 nM,≥11,≤ 2.5 nM,CC(C)Cc1ccc(Nc2ncc(Nc3ccncc3F)cn2)cc1 [Compound A56]
3 nM,2,≤ 2.5 nM,CC(C)Cc1ccc(Nc2ncc(Nc3ccncc3Cl)cn2)cc1 [Compound A57]
2.8 nM,2,≤ 2.5 nM,CC(C)Cc1ccc(Nc2ncc(Nc3ccncc3Cl)cn2)c(F)c1 [Compound A58]
